For 3 compounds, inhibition results are on record in ChEMBL document CHEMBL3627608, “Crystal structures of human RIP2 kinase catalytic domain complexed with ATP-competitive inhibitors: Foundations for understanding inhibitor selectivity” (Bioorg Med Chem, 2015).

A word on the inhibition: it is the change of the read-out against control, counted positive when it falls.

Test [1] has as its target T1, Ephrin type-B receptor 2 (Homo sapiens) (UniProt P29323).
T1 sequence (whole entry): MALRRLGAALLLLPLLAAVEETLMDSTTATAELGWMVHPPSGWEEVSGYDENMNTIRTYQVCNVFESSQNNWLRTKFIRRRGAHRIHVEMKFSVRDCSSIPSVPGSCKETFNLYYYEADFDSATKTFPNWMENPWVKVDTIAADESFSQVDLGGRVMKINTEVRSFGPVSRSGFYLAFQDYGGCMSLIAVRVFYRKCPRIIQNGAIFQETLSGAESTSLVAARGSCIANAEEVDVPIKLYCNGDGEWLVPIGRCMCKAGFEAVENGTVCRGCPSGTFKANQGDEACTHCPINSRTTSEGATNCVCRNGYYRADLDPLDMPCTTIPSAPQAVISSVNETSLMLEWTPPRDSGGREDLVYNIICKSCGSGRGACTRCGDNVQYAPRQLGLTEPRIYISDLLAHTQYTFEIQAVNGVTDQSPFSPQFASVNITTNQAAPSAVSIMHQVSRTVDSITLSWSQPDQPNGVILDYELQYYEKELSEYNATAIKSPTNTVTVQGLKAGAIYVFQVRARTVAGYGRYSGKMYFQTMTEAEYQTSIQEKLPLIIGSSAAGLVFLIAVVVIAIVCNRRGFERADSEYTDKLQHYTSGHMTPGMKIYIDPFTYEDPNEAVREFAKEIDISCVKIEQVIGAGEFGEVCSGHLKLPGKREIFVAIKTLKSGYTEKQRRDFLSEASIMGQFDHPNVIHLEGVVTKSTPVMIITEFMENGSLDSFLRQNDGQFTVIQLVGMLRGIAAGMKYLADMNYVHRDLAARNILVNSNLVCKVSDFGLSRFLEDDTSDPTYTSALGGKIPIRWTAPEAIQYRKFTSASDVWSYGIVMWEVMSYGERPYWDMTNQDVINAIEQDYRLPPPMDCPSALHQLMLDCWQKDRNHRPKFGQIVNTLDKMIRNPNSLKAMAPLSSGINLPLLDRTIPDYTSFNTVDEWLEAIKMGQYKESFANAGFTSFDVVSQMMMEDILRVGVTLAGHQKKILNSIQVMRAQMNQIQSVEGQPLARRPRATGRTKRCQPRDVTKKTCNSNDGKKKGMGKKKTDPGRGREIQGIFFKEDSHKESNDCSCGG
Nature of the test: Inhibition of EPHB2 (unknown origin) at 10 uM after 120 mins P33 radiolabeled kinase activity assay.

In test [2] the target is G protein-coupled receptor kinase 6 (Homo sapiens) (UniProt P43250). Nature of the test: Inhibition of GRK6 (unknown origin) at 10 uM after 120 mins P33 radiolabeled kinase activity assay.
For test [3], the target named is T2, Homeodomain-interacting protein kinase 4 (Homo sapiens) (UniProt Q8NE63).
T2 sequence (whole entry): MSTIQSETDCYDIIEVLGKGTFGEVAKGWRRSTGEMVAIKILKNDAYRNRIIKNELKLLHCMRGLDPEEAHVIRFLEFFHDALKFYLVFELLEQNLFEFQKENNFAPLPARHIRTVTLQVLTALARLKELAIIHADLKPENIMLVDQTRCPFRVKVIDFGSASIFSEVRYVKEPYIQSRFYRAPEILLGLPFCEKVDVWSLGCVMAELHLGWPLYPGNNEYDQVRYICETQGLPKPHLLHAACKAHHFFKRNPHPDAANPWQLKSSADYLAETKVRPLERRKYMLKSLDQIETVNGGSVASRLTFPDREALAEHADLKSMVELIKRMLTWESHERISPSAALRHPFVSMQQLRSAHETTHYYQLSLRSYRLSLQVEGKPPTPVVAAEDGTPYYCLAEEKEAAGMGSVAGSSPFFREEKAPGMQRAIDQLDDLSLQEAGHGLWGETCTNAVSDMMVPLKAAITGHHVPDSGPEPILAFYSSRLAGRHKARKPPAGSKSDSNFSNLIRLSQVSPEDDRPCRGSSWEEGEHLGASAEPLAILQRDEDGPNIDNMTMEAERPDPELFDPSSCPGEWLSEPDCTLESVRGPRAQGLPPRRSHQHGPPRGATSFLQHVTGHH
Description: Inhibition of HIPK4 (unknown origin) at 10 uM after 120 mins P33 radiolabeled kinase activity assay.

The target in test [4] is Ribosomal protein S6 kinase beta-2 (Homo sapiens) (UniProt Q9UBS0). Nature of the test: Inhibition of RPS6KB2 (unknown origin) at 10 uM after 120 mins P33 radiolabeled kinase activity assay.
The target of test [5] is Serine/threonine-protein kinase PAK 6 (Homo sapiens) (UniProt Q9NQU5). Description: Inhibition of PAK6 (unknown origin) at 10 uM after 120 mins P33 radiolabeled kinase activity assay.
Test [6] concerns the target MAP kinase-activated protein kinase 2 (Homo sapiens) (UniProt P49137). Description: Inhibition of MAPKAPK2 (unknown origin) at 10 uM after 120 mins P33 radiolabeled kinase activity assay.
Test [7] addresses Serine/threonine-protein kinase SIK2 (Homo sapiens) (UniProt Q9H0K1). Description: Inhibition of SIK2 (unknown origin) at 10 uM after 120 mins P33 radiolabeled kinase activity assay.
Test [8] deals with T3, Tyrosine-protein kinase TXK (Homo sapiens) (UniProt P42681).
T3 sequence (whole entry): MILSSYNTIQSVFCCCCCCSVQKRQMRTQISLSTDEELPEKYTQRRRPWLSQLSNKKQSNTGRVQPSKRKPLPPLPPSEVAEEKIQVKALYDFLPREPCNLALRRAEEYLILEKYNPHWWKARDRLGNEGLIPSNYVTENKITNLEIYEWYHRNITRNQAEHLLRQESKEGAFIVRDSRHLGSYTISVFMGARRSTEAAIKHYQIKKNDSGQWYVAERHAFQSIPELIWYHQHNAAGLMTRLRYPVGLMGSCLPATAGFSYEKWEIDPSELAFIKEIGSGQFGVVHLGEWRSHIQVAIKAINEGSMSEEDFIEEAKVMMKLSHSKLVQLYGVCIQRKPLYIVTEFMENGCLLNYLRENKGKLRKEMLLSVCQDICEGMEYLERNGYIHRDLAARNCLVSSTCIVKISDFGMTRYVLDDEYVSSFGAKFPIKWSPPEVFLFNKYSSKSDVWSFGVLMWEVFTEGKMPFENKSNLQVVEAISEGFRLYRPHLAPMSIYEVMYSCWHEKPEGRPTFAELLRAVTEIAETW
Description: Inhibition of TXK (unknown origin) at 10 uM after 120 mins P33 radiolabeled kinase activity assay.

MAP kinase-activated protein kinase 2 (Homo sapiens), sequence (P49137 whole entry, looked up): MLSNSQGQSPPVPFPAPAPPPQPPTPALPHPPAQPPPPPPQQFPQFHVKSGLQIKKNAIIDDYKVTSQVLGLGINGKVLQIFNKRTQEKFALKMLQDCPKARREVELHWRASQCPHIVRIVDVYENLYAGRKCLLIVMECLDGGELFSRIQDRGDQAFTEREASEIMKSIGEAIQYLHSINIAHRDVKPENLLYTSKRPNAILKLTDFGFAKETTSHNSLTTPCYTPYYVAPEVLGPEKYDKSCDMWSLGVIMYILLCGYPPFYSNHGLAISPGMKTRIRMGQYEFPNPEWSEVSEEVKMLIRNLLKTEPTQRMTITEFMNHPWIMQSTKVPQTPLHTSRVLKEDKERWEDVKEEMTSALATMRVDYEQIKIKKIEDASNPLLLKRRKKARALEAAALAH
G protein-coupled receptor kinase 6 (Homo sapiens), sequence (P43250 whole entry, looked up): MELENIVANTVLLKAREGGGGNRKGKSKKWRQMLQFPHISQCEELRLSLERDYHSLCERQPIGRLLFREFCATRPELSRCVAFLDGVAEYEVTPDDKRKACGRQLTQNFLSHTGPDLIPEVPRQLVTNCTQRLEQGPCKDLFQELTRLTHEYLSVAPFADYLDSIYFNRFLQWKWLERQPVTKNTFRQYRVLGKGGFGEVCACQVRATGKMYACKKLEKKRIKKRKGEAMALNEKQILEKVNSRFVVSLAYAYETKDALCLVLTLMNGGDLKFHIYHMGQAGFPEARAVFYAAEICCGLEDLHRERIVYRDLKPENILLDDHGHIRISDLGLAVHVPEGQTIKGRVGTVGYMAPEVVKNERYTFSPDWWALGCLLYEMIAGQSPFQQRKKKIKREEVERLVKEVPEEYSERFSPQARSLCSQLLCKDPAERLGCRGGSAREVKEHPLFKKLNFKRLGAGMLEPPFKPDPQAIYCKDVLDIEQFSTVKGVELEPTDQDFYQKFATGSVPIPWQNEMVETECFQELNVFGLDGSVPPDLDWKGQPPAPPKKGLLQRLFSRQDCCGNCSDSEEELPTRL
Serine/threonine-protein kinase PAK 6 (Homo sapiens), sequence (Q9NQU5 whole entry, looked up): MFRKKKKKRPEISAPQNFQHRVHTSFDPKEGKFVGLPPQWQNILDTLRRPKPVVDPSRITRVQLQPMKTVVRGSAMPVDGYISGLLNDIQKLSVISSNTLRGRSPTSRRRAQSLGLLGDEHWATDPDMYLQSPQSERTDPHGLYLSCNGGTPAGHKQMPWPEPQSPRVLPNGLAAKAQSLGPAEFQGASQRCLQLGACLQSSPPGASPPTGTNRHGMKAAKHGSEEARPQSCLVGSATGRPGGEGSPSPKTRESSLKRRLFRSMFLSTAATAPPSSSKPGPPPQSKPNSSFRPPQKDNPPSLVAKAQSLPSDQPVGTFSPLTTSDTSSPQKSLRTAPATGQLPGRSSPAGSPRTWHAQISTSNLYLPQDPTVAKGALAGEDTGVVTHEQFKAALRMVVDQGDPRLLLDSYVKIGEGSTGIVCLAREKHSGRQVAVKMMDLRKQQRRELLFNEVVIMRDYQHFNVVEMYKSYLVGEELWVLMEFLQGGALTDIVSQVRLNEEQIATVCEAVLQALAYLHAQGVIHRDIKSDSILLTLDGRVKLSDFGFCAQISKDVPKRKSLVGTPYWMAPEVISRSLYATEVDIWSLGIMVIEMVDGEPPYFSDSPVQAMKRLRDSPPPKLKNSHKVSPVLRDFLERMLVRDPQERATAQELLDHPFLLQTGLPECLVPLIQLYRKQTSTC
Ribosomal protein S6 kinase beta-2 (Homo sapiens), sequence (Q9UBS0 whole entry): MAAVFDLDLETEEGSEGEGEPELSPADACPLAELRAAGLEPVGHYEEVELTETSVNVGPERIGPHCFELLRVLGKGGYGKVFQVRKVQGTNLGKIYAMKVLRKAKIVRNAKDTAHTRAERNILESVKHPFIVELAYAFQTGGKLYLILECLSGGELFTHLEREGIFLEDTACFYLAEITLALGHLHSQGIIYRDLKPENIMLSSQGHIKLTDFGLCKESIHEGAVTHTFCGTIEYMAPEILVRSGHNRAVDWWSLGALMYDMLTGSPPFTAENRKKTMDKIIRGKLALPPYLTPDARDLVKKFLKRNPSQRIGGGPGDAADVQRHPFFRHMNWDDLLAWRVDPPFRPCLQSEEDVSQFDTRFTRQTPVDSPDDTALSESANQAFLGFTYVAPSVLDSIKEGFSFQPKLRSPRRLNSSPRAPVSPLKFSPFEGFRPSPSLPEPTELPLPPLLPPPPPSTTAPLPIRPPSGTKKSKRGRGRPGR
Serine/threonine-protein kinase SIK2 (Homo sapiens), sequence (Q9H0K1 whole entry, looked up): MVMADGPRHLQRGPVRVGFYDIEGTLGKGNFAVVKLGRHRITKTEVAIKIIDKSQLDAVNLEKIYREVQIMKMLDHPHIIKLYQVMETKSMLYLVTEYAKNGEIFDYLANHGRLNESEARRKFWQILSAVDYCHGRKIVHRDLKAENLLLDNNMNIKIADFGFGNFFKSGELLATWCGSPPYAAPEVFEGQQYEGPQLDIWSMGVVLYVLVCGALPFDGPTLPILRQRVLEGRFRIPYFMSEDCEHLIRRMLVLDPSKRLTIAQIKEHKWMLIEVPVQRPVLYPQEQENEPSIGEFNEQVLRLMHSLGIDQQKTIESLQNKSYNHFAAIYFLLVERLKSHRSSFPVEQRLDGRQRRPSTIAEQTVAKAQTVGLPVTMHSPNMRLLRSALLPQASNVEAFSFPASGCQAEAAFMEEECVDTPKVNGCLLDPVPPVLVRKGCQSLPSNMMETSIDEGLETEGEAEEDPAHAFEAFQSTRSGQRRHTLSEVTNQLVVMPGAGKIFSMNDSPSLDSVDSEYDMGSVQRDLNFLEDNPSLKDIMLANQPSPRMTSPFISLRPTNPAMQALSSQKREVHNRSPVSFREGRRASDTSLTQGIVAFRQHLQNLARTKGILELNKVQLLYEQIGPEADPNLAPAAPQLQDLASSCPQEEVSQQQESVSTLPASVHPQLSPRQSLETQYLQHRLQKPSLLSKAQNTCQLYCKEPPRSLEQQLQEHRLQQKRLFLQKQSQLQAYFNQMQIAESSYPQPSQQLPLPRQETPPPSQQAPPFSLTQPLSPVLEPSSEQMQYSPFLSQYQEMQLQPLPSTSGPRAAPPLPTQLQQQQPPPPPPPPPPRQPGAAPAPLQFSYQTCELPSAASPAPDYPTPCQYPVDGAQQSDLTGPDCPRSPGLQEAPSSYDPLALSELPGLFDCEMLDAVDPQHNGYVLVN

`CS(=O)(=O)c1cccc(Nc2nccc(-c3sc(N4CCOCC4)nc3-c3cccc(NS(=O)(=O)c4c(F)cccc4F)c3)n2)c1`: the inhibition is 74.9% in test [1]; -5.6% in test [2]; 97% in test [3]; 11.1% in test [4]; 17.4% in test [5]; 10.7% in test [6]. Also, the inhibition was 97.2% in test [7] and 97.5% in test [8].
Regarding `CC(C)(C)c1cc(NC(=O)Nc2ccc(Oc3ccncc3)cc2)no1`, the inhibition is 97.7% in test [1]; -8.96% in test [2]; 96.7% in test [3]; 52.2% in test [4]; 8.88% in test [5]; 11% in test [6]. For the same compound, the inhibition in test [7] was determined as 19.2%; in test [8] it was 24.8%.
As to `COCCNC(=O)c1ccc2c(c1)nc(-c1cnc(-c3ccc(Cl)cc3)[nH]1)n2CCOC`, the inhibition in test [1] was 20.3%; in test [2] it was -7.62%; in test [3], -9.28%; in test [4], 6.27%; in test [5], 3.33%; in test [6], 11.5%. For the same compound, the inhibition in test [7] came to 17%; in test [8], 27.8%.
